Laboratory results as given in publication doi:10.1101/2021.02.18.431786v1 (biorxiv, 2021).

Target: ABCG2 (Homo sapiens, UniProt Q9UNQ0)
Experiment: biochemical

ABCG2, sequence (Q9UNQ0 whole entry): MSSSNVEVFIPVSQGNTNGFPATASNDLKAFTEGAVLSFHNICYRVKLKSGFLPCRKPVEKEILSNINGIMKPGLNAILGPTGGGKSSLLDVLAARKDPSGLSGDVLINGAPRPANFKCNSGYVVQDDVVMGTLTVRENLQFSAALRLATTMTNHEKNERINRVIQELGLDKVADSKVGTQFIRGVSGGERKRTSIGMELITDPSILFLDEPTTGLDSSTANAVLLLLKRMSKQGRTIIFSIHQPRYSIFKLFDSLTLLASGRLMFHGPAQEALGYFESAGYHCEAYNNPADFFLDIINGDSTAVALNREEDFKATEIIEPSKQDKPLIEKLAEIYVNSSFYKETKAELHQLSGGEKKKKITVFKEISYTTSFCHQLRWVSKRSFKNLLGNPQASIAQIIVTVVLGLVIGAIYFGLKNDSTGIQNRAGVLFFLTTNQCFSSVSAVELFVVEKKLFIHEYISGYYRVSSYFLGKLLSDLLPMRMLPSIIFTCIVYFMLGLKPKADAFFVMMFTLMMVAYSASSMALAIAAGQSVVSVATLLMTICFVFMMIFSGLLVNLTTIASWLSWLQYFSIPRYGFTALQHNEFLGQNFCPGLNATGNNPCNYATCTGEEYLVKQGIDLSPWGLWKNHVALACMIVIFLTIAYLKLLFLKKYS

EC50 [µM] | Structure (SMILES)
0.08 ± 0.01 | COc1cc2c(cc1OC)CN(CCc1ccc(NC(=O)c3cc(OC)c(OC)cc3NC(=O)c3cnc4ccccc4c3)cc1)CC2 [tariquidar]
11.7 ± 0.3 | CC[C@@]1(O)C(=O)OCc2c1cc1n(c2=O)Cc2cc3c(CN(C)C)c(O)ccc3nc2-1 [topotecan]

Structure (SMILES) | EC50 [µM]
O=C1c2c(O)ccc(O)c2C(=O)c2c(NCCNCCO)ccc(NCCNCCO)c21 [mitoxantrone] | 18.3 ± 2.2
